For data set [1], the system named is PDGFRα amplified glioblastoma. The data set can be described thus: Phase 1 study: antitumor activity (RANO) in glioblastoma patient with PDGFRα amplification. Format: in vivo, human. As to conditions: GBM patient, 20 mg BID oral. The procedure: (§1) Preliminary antitumor activity was measured by CT scans according to RANO (Revised Assessment in Neuro-Oncology) criteria every other cycle followed by after every cycle (every 56 or 84 days). Pharmacodynamic effects […] were measured as a reduction in circulating tumor cells (CTC). Whole blood was enriched for CTCs in an OncoQuick tube. The CTC layer was incubated with an adenovirus that replicates and expresses GFP in cells with high levels of telomerase (Oncolys BioPharma Inc.). Cells were then incubated with fluorescently-labeled antibodies, fixed, and stained with DAPI. Cells positive for DAPI, GFP, PDGFRα and GFAP fluorescence were counted as circulating glioblastoma tumor cells using a BioTek Cytation 5 imager. Glial fibrillary acidic protein (GFAP) is unambiguously attributed to glial cells.
All patients had to have progressive disease on standard of care treatment and would rapidly progress without treatment. One patient with PDGFRα amplified glioblastoma (GBM; 6× amplified, 12 copies) was enrolled in the study at the 20 mg BID dose level. The patient had been treated initially with combined radio-chemotherapy followed by temozolomide alone and progressed after 3 months. The GBM patient is now in cycle 19 (>17 months on study) and continues to benefit from treatment. […] FIG. 1B provided an additional proof of the tumor reduction after cycle 9.

Data set [2] concerns PDGFRα D842V mutated Gastrointestinal Stromal Tumors (GIST). The experiment in a line: Phase 1 study DCC-2618-01-001: antitumor activity (RECIST 1.1) in GIST patients with PDGFRα D842V mutation. The class given is in vivo, human. As to conditions: GIST patient. The procedure:
(§2) Preliminary antitumor activity was measured by CT scans according to RECIST 1.1 every other cycle (every 56 days). Pharmacodynamics effects were measured as a reduction in mutation allele frequency (MAF) in plasma cell-free (cf) DNA and analyzed with Guardant 360 v2.9 or v2.10 (Guardant Health, Redwood City, Calif.), a. 73-gene next generation sequencing panel.
All patients had to have progressive disease on standard of care treatment and would rapidly progress without treatment. Three patients with PDGFRα-mutated Gastrointestinal Stromal Tumors (GIST) were enrolled in the study. The PDGFRα D842V mutation was identified in each patient by tumor biopsy. Based on non-clinical data and the available pharmacokinetic data from study DCC-2618-01-001, dose levels of >50 mg BID (daily dose equivalent 100 mg) were sufficient to lead to tumor control i.e. growth arrest in these advanced sarcomas of PDGFRα D842V mutation-dependent tumors in patients suffering from GIST. Out of 3 evaluable patients, 2 were enrolled at or above target-effective dose levels (150 mg QD and 100 mg BID). […] The patient at 100 mg BID is now in Cycle 11 (>40 weeks) and continues to benefit from treatment. […] The 2 patients had 1 and 3 prior treatments with Tyrosine Kinase Inhibitors, respectively.

For data set [3], the system named is circulating glioblastoma tumor cells (PDGFRα+/GFAP+). The experiment in a line: Phase 1 study: circulating glioblastoma tumor cells (PDGFRα+/GFAP+ CTC) in whole blood. The class given is in vivo, human. As to conditions: GBM patient, 20 mg BID. The procedure:
as §1
The relevance of PDGFRα amplification has been assessed in pediatric and adult high-grade astrocytomas (HGA) including glioblastomas. […] Dunn et al., provide additional evidence that PDGFRα amplification is a driver genomic alteration for GBM (Dunn et al., Genes Dev. (2012) 26(8):756-84). […] The frequency dropped in cycles 13 (52 weeks) and 17 (68 weeks) to 1.11 and 0.58 CTCs/mL, respectively.

Data set [4] can be described thus: Phase 1 study: plasma pharmacokinetics, Cycle 1 Day 15, after oral Compound A. Format: in vivo, human. Conditions: patients, Cycle 1 Day 15 steady state; for Cmax: human, po, 150 mg, Compound A Cmax (mean). The text has this:
Phoenix WinNonlin version 6.3 was used to analyze plasma concentration versus time data for calculation of standard noncompartmental PK parameters. All PK calculations were completed using the nominal sample collection times.

Data set [5] has as its system PDGFRα D842V mutation in plasma cell-free DNA. The experiment in a line: Phase 1 study: PDGFRα D842V mutation allele frequency in plasma cfDNA (Guardant 360). The class given is in vivo, human. Conditions: GIST patient at 100 mg BID. The procedure: as §2
To date, cfDNA follow up data for PDGFRα D842V mutation allele frequency in plasma are available for the patient at 100 mg BID only. The PDGFRα D842V mutation was not detected by cfDNA at baseline, but at Cycle 3 Day 1 (8 weeks) post-treatment a frequency of 0.59% was detected.

In data set [6] the target is T1, recombinant wild type PDGFRα (Homo sapiens, UniProt P16234).
T1 construct: purchased DeCode Biostructures, Bainbridge Island, Wash
The data set can be described thus: Biochemical assay for PDGFRα (coupled pyruvate kinase/lactate dehydrogenase). As to conditions: 0.5 mM ATP, 4.8 nM PDGFRA; read-out: IC50, inhibition of recombinant wild type PDGFRα enzyme activity.
Procedure: Inhibition of PDGFRA was measured after adding serial diluted test compound (final assay concentration of 1% DMSO). A decrease in absorption at 340 nm was monitored continuously for 6 hours at 30° C. on a multi-mode microplate reader (BioTek, Winooski, Vt.). The reaction rate was calculated using the 1-2 h time frame. The reaction rate at each concentration of compound was converted to percent inhibition using controls (i.e. reaction with no test compound and reaction with a known inhibitor) and IC50 values were calculated by fitting a four-parameter sigmoidal curve to the data using Prism (GraphPad, San Diego, Calif.).

The subject of data set [7] is FIP1L1-PDGFRα fusion in EOL-1 cells. The data set can be described thus: EOL-1 cell proliferation assay (resazurin). The class given is cell-based. Conditions: Homo sapiens, EOL1; 67 h + 5 h resazurin; read-out: IC50, inhibition of proliferation of FIP1L1-PDGFRα fusion in EOL-1 cells. The procedure: (§3) A serial dilution of test compound was dispensed into a 96-well black clear bottom plate (Corning, Corning, N.Y.). Ten thousand cells were added per well in 200 μL complete growth medium. […] Plates were read on a Synergy2 reader (Biotek, Winooski, Vt.) using an excitation of 540 nm and an emission of 600 nm. Data was analyzed using Prism software (GraphPad, San Diego, Calif.) to calculate IC50 values.

The subject of data set [8] is D842V mutant PDGFRα BaF3 cells. The experiment in a line: BaF3 PDGFRα D842V cell proliferation assay (resazurin). As to conditions: Mus musculus, 67 h + 5 h resazurin, read-out: IC50, inhibition of proliferation of D842V mutant PDGFRα BaF3 cells. The class given is cell-based. The procedure:
(§4) BaF3 cells were transfected with a construct encoding D842V PDGFRα and selected for IL-3 independence.
as §3
A general note: The colour change of resazurin is a common sign of viable cells or microbes.

The test system of data set [9] is FIP1L1-PDGFRα fusion in EOL-1 cells. The experiment in a line: EOL-1 Western blot, phospho-PDGFRα (Tyr754). The class given is cell-based. Conditions: Homo sapiens, EOL1, 4 hours, read-out: IC50, inhibition of phosphorylation of FIP1L1-PDGFRα fusion in EOL-1 cells. The procedure: (§5) Cells were washed with PBS, then lysed. Cell lysates were separated by SDS-PAGE and transferred to PVDF. Phospho-PDGFRα (Tyr754) was detected using an antibody from Cell Signaling Technology (Beverly, Mass.), ECL Plus detection reagent (GE Healthcare, Piscataway, N.J.) and a Molecular Devices Storm 840 phosphorimager in fluorescence mode. Blots were stripped and probed for total PDGFRα using an antibody from Cell Signaling Technology (Beverly, Mass.). IC50 values were calculated using Prism software (GraphPad, San Diego, Calif.).
Background: A western blot detects proteins with antibodies after separation by electrophoresis.

Data set [10] has as its target T2, recombinant wild type PDGFRβ (Homo sapiens, UniProt P09619).
T2 construct: purchased DeCode Biostructures, Bainbridge Island, Wash
The data set can be described thus: Biochemical assay for PDGFRB (coupled pyruvate kinase/lactate dehydrogenase). Conditions: 0.5 mM ATP, 9 nM PDGFRB; read-out: IC50, inhibition of recombinant wild type PDGFRβ enzyme activity. The procedure:
(§6) The reaction rate was calculated using the 2-3 h time frame.

Data set [11] deals with T3, D842V mutant PDGFRα expressed in BaF3 cells (Homo sapiens, UniProt P16234, D842V).
T3 construct: expressed in transfected cells; host or cells: BaF3 cells (IL-3 independent selection)
The experiment in a line: BaF3 PDGFRα D842V Western blot, phospho-PDGFRα (Tyr754). Format: cell-based. As to conditions: 4 hours, read-out: IC50, inhibition of phosphorylation of D842V mutant PDGFRα expressed in BaF3 cells.
Excerpt: as §4, §5

Data set [12] has as its target T4, recombinant D842V mutant PDGFRα (Homo sapiens, UniProt P16234, D842V).
T4 construct: His (N); purchased Invitrogen, Carlsbad, Calif
The experiment in a line: Biochemical assay for PDGFRα D842V (coupled pyruvate kinase/lactate dehydrogenase). As to conditions: 0.5 mM ATP, 3 nM PDGFRA D842V; read-out: IC50, inhibition of recombinant D842V mutant PDGFRα enzyme activity. The procedure: as §6

T2 sequence (P09619 with tags, fused parts or gaps N1019K): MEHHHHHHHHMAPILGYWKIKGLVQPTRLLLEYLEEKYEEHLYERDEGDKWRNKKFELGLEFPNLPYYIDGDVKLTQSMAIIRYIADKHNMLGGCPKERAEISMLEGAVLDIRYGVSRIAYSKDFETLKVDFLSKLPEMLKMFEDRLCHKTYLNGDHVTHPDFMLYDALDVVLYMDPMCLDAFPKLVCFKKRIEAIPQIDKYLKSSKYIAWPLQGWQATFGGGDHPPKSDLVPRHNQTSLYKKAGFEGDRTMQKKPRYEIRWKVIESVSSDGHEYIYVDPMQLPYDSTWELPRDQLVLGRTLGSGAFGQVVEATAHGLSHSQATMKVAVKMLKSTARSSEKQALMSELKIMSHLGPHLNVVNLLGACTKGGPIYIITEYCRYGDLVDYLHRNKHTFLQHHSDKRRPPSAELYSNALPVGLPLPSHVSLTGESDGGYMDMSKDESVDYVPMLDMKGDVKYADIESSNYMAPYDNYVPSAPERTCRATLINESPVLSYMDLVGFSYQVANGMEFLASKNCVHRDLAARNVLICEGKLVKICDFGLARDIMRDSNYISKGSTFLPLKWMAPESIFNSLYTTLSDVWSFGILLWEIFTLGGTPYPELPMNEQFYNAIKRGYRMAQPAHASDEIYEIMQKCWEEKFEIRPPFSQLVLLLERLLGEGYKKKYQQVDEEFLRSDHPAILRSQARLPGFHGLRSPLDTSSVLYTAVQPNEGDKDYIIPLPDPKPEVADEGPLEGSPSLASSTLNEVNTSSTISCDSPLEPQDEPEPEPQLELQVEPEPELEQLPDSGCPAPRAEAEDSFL
T4 sequence (P16234 with tags, fused parts or gaps D842V): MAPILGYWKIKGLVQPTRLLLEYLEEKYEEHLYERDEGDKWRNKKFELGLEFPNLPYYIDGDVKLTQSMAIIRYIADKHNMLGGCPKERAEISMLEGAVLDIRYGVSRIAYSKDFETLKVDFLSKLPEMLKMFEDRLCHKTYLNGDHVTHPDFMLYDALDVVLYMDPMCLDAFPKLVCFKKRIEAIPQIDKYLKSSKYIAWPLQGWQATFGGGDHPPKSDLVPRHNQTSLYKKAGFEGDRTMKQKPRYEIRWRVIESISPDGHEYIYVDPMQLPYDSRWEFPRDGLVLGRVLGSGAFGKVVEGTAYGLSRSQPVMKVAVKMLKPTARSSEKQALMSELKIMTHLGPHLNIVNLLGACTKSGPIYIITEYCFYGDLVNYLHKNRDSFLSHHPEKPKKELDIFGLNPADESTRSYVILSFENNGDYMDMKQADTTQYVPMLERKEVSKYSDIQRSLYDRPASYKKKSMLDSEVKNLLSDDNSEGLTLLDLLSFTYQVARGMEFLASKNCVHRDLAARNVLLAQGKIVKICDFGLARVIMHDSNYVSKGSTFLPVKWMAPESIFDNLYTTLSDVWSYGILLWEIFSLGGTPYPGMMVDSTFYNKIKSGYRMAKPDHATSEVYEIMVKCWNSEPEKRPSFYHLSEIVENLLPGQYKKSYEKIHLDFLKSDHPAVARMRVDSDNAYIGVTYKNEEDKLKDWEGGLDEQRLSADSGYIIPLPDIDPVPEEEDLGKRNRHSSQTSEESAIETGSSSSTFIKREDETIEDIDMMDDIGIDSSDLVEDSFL
T1 sequence (P16234 with tags, fused parts or gaps): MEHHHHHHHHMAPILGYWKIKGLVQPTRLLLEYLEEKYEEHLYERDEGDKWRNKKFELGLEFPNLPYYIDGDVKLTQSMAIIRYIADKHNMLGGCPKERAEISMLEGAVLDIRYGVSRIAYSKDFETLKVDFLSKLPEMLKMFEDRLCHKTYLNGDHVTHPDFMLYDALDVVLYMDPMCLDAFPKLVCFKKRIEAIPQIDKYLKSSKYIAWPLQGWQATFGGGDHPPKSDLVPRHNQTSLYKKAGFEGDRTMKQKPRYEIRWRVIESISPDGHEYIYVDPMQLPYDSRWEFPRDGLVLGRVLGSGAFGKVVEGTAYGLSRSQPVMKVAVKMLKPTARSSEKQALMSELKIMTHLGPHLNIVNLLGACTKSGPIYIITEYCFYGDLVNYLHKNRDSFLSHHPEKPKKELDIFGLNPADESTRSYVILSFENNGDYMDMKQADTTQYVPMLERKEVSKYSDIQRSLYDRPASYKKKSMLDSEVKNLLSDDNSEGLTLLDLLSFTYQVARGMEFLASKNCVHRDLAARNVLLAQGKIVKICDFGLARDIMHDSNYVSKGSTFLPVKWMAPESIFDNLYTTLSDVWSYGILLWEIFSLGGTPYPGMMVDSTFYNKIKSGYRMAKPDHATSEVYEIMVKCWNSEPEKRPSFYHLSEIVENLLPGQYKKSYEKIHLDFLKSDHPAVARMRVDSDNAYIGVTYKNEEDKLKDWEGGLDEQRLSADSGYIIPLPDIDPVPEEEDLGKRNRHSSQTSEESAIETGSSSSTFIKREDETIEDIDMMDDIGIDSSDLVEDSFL
T3 sequence (P16234 24-1089 D842V): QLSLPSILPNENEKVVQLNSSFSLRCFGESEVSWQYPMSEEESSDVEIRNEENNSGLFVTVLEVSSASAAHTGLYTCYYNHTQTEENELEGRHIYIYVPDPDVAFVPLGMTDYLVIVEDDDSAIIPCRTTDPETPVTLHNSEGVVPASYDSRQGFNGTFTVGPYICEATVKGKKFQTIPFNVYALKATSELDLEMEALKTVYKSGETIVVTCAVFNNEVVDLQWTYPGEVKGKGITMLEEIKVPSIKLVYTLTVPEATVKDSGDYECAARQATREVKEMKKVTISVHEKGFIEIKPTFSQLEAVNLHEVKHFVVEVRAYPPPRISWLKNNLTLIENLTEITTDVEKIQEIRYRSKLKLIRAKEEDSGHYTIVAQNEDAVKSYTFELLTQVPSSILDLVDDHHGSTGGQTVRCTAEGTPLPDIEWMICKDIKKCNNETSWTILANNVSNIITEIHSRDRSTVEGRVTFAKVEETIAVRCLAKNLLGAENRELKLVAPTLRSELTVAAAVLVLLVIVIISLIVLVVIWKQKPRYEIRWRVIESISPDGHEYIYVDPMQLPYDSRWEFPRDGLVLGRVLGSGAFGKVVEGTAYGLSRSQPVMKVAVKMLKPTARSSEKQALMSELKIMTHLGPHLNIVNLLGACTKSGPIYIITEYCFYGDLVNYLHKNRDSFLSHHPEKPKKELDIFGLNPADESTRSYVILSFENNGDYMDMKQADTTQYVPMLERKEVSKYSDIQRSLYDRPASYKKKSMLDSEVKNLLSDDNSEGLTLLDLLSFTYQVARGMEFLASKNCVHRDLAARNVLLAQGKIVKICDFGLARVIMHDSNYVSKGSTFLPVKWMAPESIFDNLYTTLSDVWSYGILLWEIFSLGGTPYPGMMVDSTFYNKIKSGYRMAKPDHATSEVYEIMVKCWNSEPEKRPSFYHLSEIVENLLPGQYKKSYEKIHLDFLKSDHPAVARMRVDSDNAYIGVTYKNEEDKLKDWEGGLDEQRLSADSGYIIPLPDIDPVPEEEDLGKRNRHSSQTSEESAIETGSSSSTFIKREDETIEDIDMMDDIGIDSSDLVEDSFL

Regarding `CCn1c(=O)c(-c2cc(NC(=O)Nc3ccccc3)c(F)cc2Br)cc2cnc(NC)cc21` [Compound A, 1-[4-bromo-5-[1-ethyl-7-(methylamino)-2-oxo-1,2-dihydro-1,6-naphthyridin-3-yl]-2-fluorophenyl]-3-phenylurea], the “Tumor response according to the RANO criteria” value in [1] (PDGFRα 6× amplified, since assessment after Cycle 12 (48 weeks)) is reported as “Partial Response”. The “Time on study with continued benefit” value in [1] (PDGFRα amplified, cycle 19) is recorded as greater than 17 months. For the same compound, the Clinical outcome in data set [2] (30 mg BID oral, cycles of 28 days) is listed as “progressed after 2 treatment cycles”. In addition, in [2] (100 mg BID oral, Cycle 11), the “Time on treatment with continued benefit” value is greater than 40 weeks. In [2] (100 mg BID oral, most recent assessment), the “Tumor assessment according to RECIST 1.1” value is on record as “Stable Disease”. Also, in data set [2] (150 mg QD oral), the Tumor reduction entry is on record as “some tumor reduction observed”. For the same compound, the Time on treatment in [2] (150 mg QD oral, Cycle 6) is listed as greater than 20 weeks. Moreover, the “Tumor assessment per RECIST” value in [2] (150 mg QD oral, Cycle 6) is reported as “stable disease”. In addition, the “Frequency of double positive CTCs (PDGFRα+/GFAP+)” value in [3] (cycle 7 (28 weeks)) is reported as 2.22 CTCs/mL; in data set [3] (cycle 13 (52 weeks)), 1.11 CTCs/mL; in data set [3] (cycle 17 (68 weeks)) it was 0.58 CTCs/mL. In addition, the Cmax stood at 1500 ng/mL in data set [4] (oral Compound A 150 mg BID) and 861 ng/mL in [4] (oral Compound A 150 mg QD). Also, the “Compound A AUC12h (mean)” value in [4] (oral Compound A 150 mg QD) is given as 8,070 ng*h/mL. Besides, the “PDGFRα D842V mutation allele frequency in plasma cfDNA” value in data set [5] (Cycle 3 Day 1 (8 weeks), not detected at baseline) is 0.59%; in [5] (Cycle 5 Day 1 (16 weeks) and Cycle 7 Day 1 (24 weeks)) it was “undetectable”.

Regarding `CCn1c(=O)c(-c2cc(NC(=O)Nc3ccccc3)c(F)cc2Br)cc2cnc(N)cc21` [Compound B, 1-(5-(7-amino-1-ethyl-2-oxo-1,2-dihydro-1,6-naphthyridin-3-yl)-4-bromo-2-fluorophenyl)-3-phenylurea], the IC50 in data set [6] is 6 nM; in data set [7], 0.018 nM; in [8], 42 nM; in data set [9] it was less than 0.1 nM; in data set [10], 5 nM; in data set [11], 26 nM. Further, the IC50 in data set [12] is 20 nM.

The Cmax is the peak of the concentration-time curve.

Values taken from patent US20220370424A1 (Deciphera Pharmaceuticals, LLC, priority 2017, published 2022).
